Legend:
Format in all cases: cell-based
[1] = tested on: KRas-mediated Phosphorylation of ERK in H460 cells; assay: Cisbio HTRF pERK assay, H460 cells; conditions: single point at 100 nM; for Inhibition (HTRF % at 100 nM) of KRas-mediated Phosphorylation of ERK, H460: H460 cells, 0.1 µM; for inhibition at 0.1 µM: Homo sapiens, NCI-H460, H460 cells
[2] = tested on: KRas-mediated Phosphorylation of ERK in HCT116 cells; assay: Cisbio HTRF pERK assay, HCT116 cells; conditions: single point at 100 nM; for Inhibition (HTRF % at 100 nM) of KRas-mediated Phosphorylation of ERK, HCT116: HCT116 cells, 0.1 µM; for inhibition at 0.1 µM: Homo sapiens, HCT-116, HCT116 cells
[3] = tested on: KRas-mediated Phosphorylation of ERK in A549 cells; assay: Cisbio HTRF pERK assay, A549 cells; conditions: single point at 100 nM; for Inhibition (HTRF % at 100 nM) of KRas-mediated Phosphorylation of ERK, A549: A549 cells, 0.1 µM; for inhibition at 0.1 µM: Homo sapiens, A549, A549 cells
[4] = tested on: KRas-mediated Phosphorylation of ERK in H358 cells; assay: Cisbio HTRF pERK assay, H358 cells; conditions: single point at 100 nM; for Inhibition (HTRF % at 100 nM) of KRas-mediated Phosphorylation of ERK, H358: H358 cells, 0.1 µM; for inhibition at 0.1 µM: Homo sapiens, NCI-H358, H358 cells

CCc1c(F)ccc2cc(O)cc(-c3c(F)cc4c(N5CCCn6nc(C(=O)N(C)C)cc6C5)nc(OC[C@@]56CCCN5C[C@H](F)C6)nc4c3F)c12 (atropisomer, axis not shown; (aS)) [Example 63, 5-((R)-7-(8-ethyl-7-fluoro-3-hydroxynaphthalen-1-yl)-6,8-difluoro-2-(((2R,7aS)-2-fluorohexahydro-1H-pyrrolizin-7a-yl)methoxy)quinazolin-4-yl)-N,N-dimethyl-5,6,7,8-tetrahydro-4H-pyrazolo[1,5-a][1,4]diazepine-2-carboxamide]
Inhibition (HTRF % at 100 nM) of KRas-mediated Phosphorylation of ERK, H460 [1]: 82% | Inhibition (HTRF % at 100 nM) of KRas-mediated Phosphorylation of ERK, HCT116 [2]: 61%

CCc1c(F)ccc2cc(O)cc(-c3c(F)cc4c(N5CCCn6nc(C(=O)N(C)C)cc6C5)nc(OC[C@@]56CCCN5C[C@H](F)C6)nc4c3F)c12 (atropisomer, axis not shown; (aS)) [Example 64, 5-((S)-7-(8-ethyl-7-fluoro-3-hydroxynaphthalen-1-yl)-6,8-difluoro-2-(((2R,7aS)-2-fluorohexahydro-1H-pyrrolizin-7a-yl)methoxy)quinazolin-4-yl)-N,N-dimethyl-5,6,7,8-tetrahydro-4H-pyrazolo[1,5-a][1,4]diazepine-2-carboxamide]
Inhibition (HTRF % at 100 nM) of KRas-mediated Phosphorylation of ERK, H460 [1]: 3% | Inhibition (HTRF % at 100 nM) of KRas-mediated Phosphorylation of ERK, HCT116 [2]: 14%

CCc1c(F)ccc2cc(O)cc(-c3c(F)cc4c(N5CCOC[C@@](C)(O)C5)nc(OC[C@@]56CCCN5C[C@H](F)C6)nc4c3F)c12 (atropisomer, axis not shown; (aS)) [Example 65, (S)-4-((S)-7-(8-ethyl-7-fluoro-3-hydroxynaphthalen-1-yl)-6,8-difluoro-2-(((2R,7aS)-2-fluorohexahydro-1H-pyrrolizin-7a-yl)methoxy)quinazolin-4-yl)-6-methyl-1,4-oxazepan-6-ol]
Inhibition (HTRF % at 100 nM) of KRas-mediated Phosphorylation of ERK, H460 [1]: 1% | Inhibition (HTRF % at 100 nM) of KRas-mediated Phosphorylation of ERK, HCT116 [2]: 16%

CCc1c(F)ccc2cc(O)cc(-c3c(F)cc4c(N5CCOC[C@@](C)(O)C5)nc(OC[C@@]56CCCN5C[C@H](F)C6)nc4c3F)c12 (atropisomer, axis not shown; (aS)) [Example 66, (S)-4-((R)-7-(8-ethyl-7-fluoro-3-hydroxynaphthalen-1-yl)-6,8-difluoro-2-(((2R,7aS)-2-fluorohexahydro-1H-pyrrolizin-7a-yl)methoxy)quinazolin-4-yl)-6-methyl-1,4-oxazepan-6-ol]
Inhibition (HTRF % at 100 nM) of KRas-mediated Phosphorylation of ERK, H460 [1]: 97% | Inhibition (HTRF % at 100 nM) of KRas-mediated Phosphorylation of ERK, HCT116 [2]: 97%

CCc1c(F)ccc2cc(O)cc(-c3c(F)cc4c(N5C[C@@H]6C[C@H](C5)[C@H](O)C6)nc(OC[C@@]56CCCN5C[C@H](F)C6)nc4c3F)c12 (atropisomer, axis not shown; (aS)) [Example 68, (1R,5R,6R)-3-((S)-7-(8-ethyl-7-fluoro-3-hydroxynaphthalen-1-yl)-6,8-difluoro-2-(((2R,7aS)-2-fluorohexahydro-1H-pyrrolizin-7a-yl)methoxy)quinazolin-4-yl)-3-azabicyclo[3.2.1]octan-6-ol]
Inhibition (HTRF % at 100 nM) of KRas-mediated Phosphorylation of ERK, H460 [1]: 14% | Inhibition (HTRF % at 100 nM) of KRas-mediated Phosphorylation of ERK, HCT116 [2]: 8%

CCc1c(F)ccc2cc(O)cc(-c3c(F)cc4c(N5CCC[C@@](C)(O)C5)nc(OC[C@@]56CCCN5C[C@H](F)C6)nc4c3F)c12 (atropisomer, axis not shown; (aS)) [Example 69, (R)-1-((R)-7-(8-ethyl-7-fluoro-3-hydroxynaphthalen-1-yl)-6,8-difluoro-2-(((2R,7aS)-2-fluorotetrahydro-1H-pyrrolizin-7a(5H)-yl)methoxy)quinazolin-4-yl)-3-methylpiperidin-3-ol]
Inhibition (HTRF % at 100 nM) of KRas-mediated Phosphorylation of ERK, A549 [3]: 84% | Inhibition (HTRF % at 100 nM) of KRas-mediated Phosphorylation of ERK, H358 [4]: 101%

CCc1c(F)ccc2cc(O)cc(-c3c(F)cc4c(N5CCC[C@@](C)(O)C5)nc(OC[C@@]56CCCN5C[C@H](F)C6)nc4c3F)c12 (atropisomer, axis not shown; (aS)) [Example 70, (R)-1-((S)-7-(8-ethyl-7-fluoro-3-hydroxynaphthalen-1-yl)-6,8-difluoro-2-(((2R,7aS)-2-fluorotetrahydro-1H-pyrrolizin-7a(5H)-yl)methoxy)quinazolin-4-yl)-3-methylpiperidin-3-ol]
Inhibition (HTRF % at 100 nM) of KRas-mediated Phosphorylation of ERK, A549 [3]: 6% | Inhibition (HTRF % at 100 nM) of KRas-mediated Phosphorylation of ERK, H358 [4]: 24%

CCc1c(F)ccc2cc(O)cc(-c3c(O)cc4c(N(C)C)nc(OC[C@@]56CCCN5C[C@H](F)C6)nc4c3F)c12 [Example 28, 4-(dimethylamino)-7-(8-ethyl-7-fluoro-3-hydroxynaphthalen-1-yl)-8-fluoro-2-(((2R,7aS)-2-fluorotetrahydro-1H-pyrrolizin-7a(5H)-yl)methoxy)quinazolin-6-ol]
inhibition at 0.1 µM [1]: 8% | inhibition at 0.1 µM [2]: 9%

CCc1c(F)ccc2cc(O)cc(-c3ccc4c(N5CCCC6(CNC(=O)N6)C5)nc(OCC5(CN(C)C)CC5)nc4c3F)c12 (centres unmarked) [Example 36, 7-(2-((1-((dimethylamino)methyl)cyclopropyl)methoxy)-7-(8-ethyl-7-fluoro-3-hydroxynaphthalen-1-yl)-8-fluoroquinazolin-4-yl)-1,3,7-triazaspiro[4.5]decan-2-one]
inhibition at 0.1 µM [1]: 25% | inhibition at 0.1 µM [2]: -22%

CCc1c(F)ccc2cc(O)cc(-c3ccc4c(N5CCCC6(CNS(=O)(=O)N6)C5)nc(OCC5(CN(C)C)CC5)nc4c3F)c12 (centres unmarked) [Example 37, 7-(2-((1-((dimethylamino)methyl)cyclopropyl)methoxy)-7-(8-ethyl-7-fluoro-3-hydroxynaphthalen-1-yl)-8-fluoroquinazolin-4-yl)-2-thia-1,3,7-triazaspiro[4.5]decane 2,2-dioxide]
inhibition at 0.1 µM [1]: 28% | inhibition at 0.1 µM [2]: 0%

CCc1c(F)ccc2cc(O)cc(-c3ccc4c(N5CCCC6(CC(=O)N6)C5)nc(OCC5(CN(C)C)CC5)nc4c3F)c12 (centres unmarked) [Example 38, 6-(2-((1-((dimethylamino)methyl)cyclopropyl)methoxy)-7-(8-ethyl-7-fluoro-3-hydroxynaphthalen-1-yl)-8-fluoroquinazolin-4-yl)-1,6-diazaspiro[3.5]nonan-2-one]
inhibition at 0.1 µM [3]: 9% | inhibition at 0.1 µM [4]: 16%

CCc1c(F)ccc2cc(O)cc(-c3ccc4c(N5CC6C(=O)NC(=O)C6C5)nc(OCC5(CN(C)C)CC5)nc4c3F)c12 (centres unmarked) [Example 39, 5-(2-((1-((dimethylamino)methyl)cyclopropyl)methoxy)-7-(8-ethyl-7-fluoro-3-hydroxynaphthalen-1-yl)-8-fluoroquinazolin-4-yl)tetrahydropyrrolo[3,4-c]pyrrole-1,3(2H,3aH)-dione]
inhibition at 0.1 µM [1]: 11% | inhibition at 0.1 µM [2]: 3%

CCc1c(F)ccc2cc(O)cc(-c3ccc4c(N5CCCn6nncc6C5)nc(OC[C@@]56CCCN5C[C@H](F)C6)nc4c3F)c12 [Example 44]
inhibition at 0.1 µM [3]: -9% | inhibition at 0.1 µM [4]: 3%

O=S1(=O)NCC2(CCCN(c3nc(OC[C@@]45CCCN4C[C@H](F)C5)nc4c(F)c(-c5cc(O)cc6ccc(F)c(Cl)c56)c(F)cc34)C2)N1 (stereo partly drawn) [Example 45, 7-(7-(8-chloro-7-fluoro-3-hydroxynaphthalen-1-yl)-6,8-difluoro-2-(((2R,7aS)-2-fluorotetrahydro-1H-pyrrolizin-7a(5H)-yl)methoxy)quinazolin-4-yl)-2-thia-1,3,7-triazaspiro[4.5]decane 2,2-dioxide]
inhibition at 0.1 µM [1]: 94% | inhibition at 0.1 µM [2]: 86%

CCc1c(F)ccc2cc(O)cc(-c3c(F)cc4c(N5CCCC6(CC(=O)N6)C5)nc(OCC5(CN(C)C)CC5)nc4c3F)c12 (centres unmarked) [Example 51, 6-(2-((1-((dimethylamino)methyl)cyclopropyl)methoxy)-7-(8-ethyl-7-fluoro-3-hydroxynaphthalen-1-yl)-6,8-difluoroquinazolin-4-yl)-1,6-diazaspiro[3.5]nonan-2-one]
inhibition at 0.1 µM [3]: 6% | inhibition at 0.1 µM [4]: 67%

CCc1c(F)ccc2cc(O)cc(-c3c(F)cc4c(N5CC6C(=O)NC(=O)C6C5)nc(OCC5(CN(C)C)CC5)nc4c3F)c12 (centres unmarked) [Example 52, 5-(2-((1-((dimethylamino)methyl)cyclopropyl)methoxy)-7-(8-ethly-7-fluoro-3-hydroxynaphthalen-1-yl)-6,8-difluoroquinazolin-4-yl)tetrahydropyrrolo[3,4-c]pyrrole-1,3(2H,3aH)-dione]
inhibition at 0.1 µM [3]: 33% | inhibition at 0.1 µM [4]: 6%

CCc1c(F)ccc2cc(O)cc(-c3c(F)cc4c(N5CCCC6(CC(O)C6)C5)nc(OCC5(CN(C)C)CC5)nc4c3F)c12 (centres unmarked) [Example 53, 6-(2-((1-((dimethylamino)methyl)cyclopropyl)methoxy)-7-(8-ethyl-7-fluoro-3-hydroxynaphthalen-1-yl)-6,8-difluoroquinazolin-4-yl)-6-azaspiro[3.5]nonan-2-ol]
inhibition at 0.1 µM [3]: 27% | inhibition at 0.1 µM [4]: 40%

CCc1c(F)ccc2cc(O)cc(-c3c(F)cc4c(N5CCCC6(C5)NC(=O)NC6=O)nc(OCC5(CN(C)C)CC5)nc4c3F)c12 (centres unmarked) [Example 54, 7-(2-((1-((dimethylamino)methyl)cyclopropyl)methoxy)-7-(8-ethyl-7-fluoro-3-hydroxynaphthalen-1-yl)-6,8-difluoroquinazolin-4-yl)-1,3,7-triazaspiro[4.5]decane-2,4-dione]
inhibition at 0.1 µM [3]: 61% | inhibition at 0.1 µM [4]: 100%

CCc1c(F)ccc2cc(O)cc(-c3c(F)cc4c(N5CCCn6nc(C(=O)N(C)C)cc6C5)nc(OCC5(CN(C)C)CC5)nc4c3F)c12 [Example 55, 5-(2-((1-((dimethylamino)methyl)cyclopropyl)methoxy)-7-(8-ethyl-7-fluoro-3-hydroxynaphthalen-1-yl)-6,8-difluoroquinazolin-4-yl)-N,N-dimethyl-5,6,7,8-tetrahydro-4H-pyrazolo[1,5-a][1,4]diazepine-2-carboxamide]
inhibition at 0.1 µM [3]: -13% | inhibition at 0.1 µM [4]: 2%
